Where a SMILES comes first, the peptide text is derived from it. [ ]: non-standard residue; d: D form. The star is where a group is joined. Met(O2) = CS(=O)(=O)CC[C@H](N)C(=O)O; Ala(cPr) = N[C@@H](CC1CC1)C(=O)O; Cbz = O=C(OCc1ccccc1)*
What was measured:
SARS-CoV-2 Mpro [1] = biological target: T1, SARS-CoV-2 Mpro (Severe acute respiratory syndrome coronavirus 2, UniProt P0DTD1); type: binding; conditions: 40 μM 15N-labeled deuterated Mpro, 20 or 40 μM compound, SPR buffer
SARS-CoV-2 = test: Anti-viral potency: inhibition of in vitro replication of SARS-CoV-2 in A549 cells; type: cell-based; conditions: for EC50: Severe acute respiratory syndrome coronavirus 2, A549 cells, 10-point titration from 50 μM, triplicate
SARS-CoV-2 Mpro [2] = biological target: T1, SARS-CoV-2 Mpro; test: biochemical; type: biochemical; conditions: for IC50 / Ki: Kinetics N = 2 (95% CI); for IC50: 4-parameter fit of the same data; for Ki: Morrison fit, 1 nM Mpro, 800 mM citrate buffer, 15 min preincubation
SARS-CoV-2 Mpro [3] = biological target: T1, SARS-CoV-2 Mpro; test: Covalent bond (adduct) formation kinetics by IR-MALDESI intact protein MS; type: binding; conditions: for kobs (95 % CI) for adduct formation / kobs (95 % CI) Quenched, SPR: SPR buffer; for kobs (95 % CI) for adduct formation: Figure 2; for kobs (95 % CI) Quenched, SPR / kobs (95 % CI) Quenched, Citrate: quenched with 200 μM compound 9, 10 μM compound and Mpro, Figure S5; for kobs (95 % CI) Quenched, Citrate: citrate buffer, only estimated for lack of early timepoints
[4] = type: physicochemical; conditions: 500 μM, monitored for 10 h at 16-min intervals
SARS-CoV-2 Mpro [5] = biological target: T1, SARS-CoV-2 Mpro; type: binding; conditions: 300 μM 13C-labeled compound, 100 μM Mpro, SPR buffer; for covalent adduct formation with Cys145 seen by 13C NMR: up to 3 h (compound 1) or 6 h (compound 5)
[6] = first determination, 4-parameter IC50 fit
[7] = second determination, 4-parameter IC50 fit

Compound	exchange regime of binding on the NMR timescale (SARS-CoV-2 Mpro [1])	EC50 (SARS-CoV-2) [µM]	Hill slope (SARS-CoV-2 Mpro [2]; 4-parameter IC50 refit)	Hill slope (SARS-CoV-2 Mpro [2]; [6])	Hill slope (SARS-CoV-2 Mpro [2]; [7])	kobs (95 % CI) for adduct formation (SARS-CoV-2 Mpro [3]; Ratio Cmpd:Mpro 1:1)	kobs (95 % CI) for adduct formation (SARS-CoV-2 Mpro [3]; Ratio Cmpd:Mpro 2:1)	kobs (95 % CI) for adduct formation (SARS-CoV-2 Mpro [3]; Ratio Cmpd:Mpro 5:1)	kobs (95 % CI) Quenched, SPR (SARS-CoV-2 Mpro [3]) [Min -1]	kobs (95 % CI) Quenched, Citrate (SARS-CoV-2 Mpro [3]) [Min -1]	epimerization at P1: αH resonance in D2O SPR buffer [4]	non-covalently bound form seen by 13C NMR (SARS-CoV-2 Mpro [5]; extended incubation)	covalent adduct formation with Cys145 seen by 13C NMR (SARS-CoV-2 Mpro [5])	decrease of cellular EC50 versus the Ki determined in citrate buffer (SARS-CoV-2; EC50 in A549 cells versus Ki) [fold]	IC50 (SARS-CoV-2 Mpro [2]; first determination) [µM]	Ki (SARS-CoV-2 Mpro [2]; first determination) [µM]	IC50 (SARS-CoV-2 Mpro [2]; second determination) [µM]	Ki (SARS-CoV-2 Mpro [2]; second determination) [µM]
COc1cccc2[nH]c(C(=O)N[C@@H](CC3CC3)C(=O)N[C@H](C=O)C[C@@H]3CCNC3=O)cc12 [Compound 1, N-((S)-3-cyclopropyl-1-oxo-1-(((S)-1-oxo-3-((S)-2-oxopyrrolidin-3-yl)propan-2-yl)amino)propan-2-yl)-4-methoxy-1H-indole-2-carboxamide]	slow exchange regime	6.2	greater than 1	3.1	2.0	0.11 (0.04919 to 0.2232)	0.34 (0.1598 to 0.8874)	2.0 (1.597 to 2.492)	0.13	0.31	no change in intensity	stably bound to Mpro non-covalently	thiohemiacetal formation	–	–	–	–	–
O=C[C@H](C[C@@H]1CCNC1=O)NC(=O)[C@H](CC1CC1)NC(=O)OCc1ccccc1 [Compound 2, benzyl ((S)-3-cyclopropyl-1-oxo-1-(((S)-1-oxo-3-((S)-2-oxopyrrolidin-3-yl)propan-2-yl)amino)propan-2-yl)carbamate]	–	3.3	greater than 1	2.7	2.5	–	–	–	0.49	0.85	–	–	–	–	–	–	–	–
COc1cccc2[nH]c(C(=O)N[C@@H](CC3CC3)C(=O)N[C@H](C=O)CCS(C)(=O)=O)cc12 [Compound 3, N-((S)-3-cyclopropyl-1-(((S)-4-(methylsulfonyl)-1-oxobutan-2-yl)amino)-1-oxopropan-2-yl)-4-methoxy-1H-indole-2-carboxamide]	–	–	1.5	1.5	1.5	–	–	–	0.18	0.30	–	–	–	–	–	–	–	–
CS(=O)(=O)CC[C@@H](C=O)NC(=O)[C@H](CC1CC1)NC(=O)OCc1ccccc1 [Compound 4, benzyl ((S)-3-cyclopropyl-1-(((S)-4-(methylsulfonyl)-1-oxobutan-2-yl)amino)-1-oxopropan-2-yl)carbamate] (Cbz-[Ala(cPr)]-[Met(O2)]-aldehyde)	–	22	–	1.0	1.0	–	–	–	0.29	0.35	–	–	–	–	–	–	–	–
COc1cccc2[nH]c(C(=O)N[C@@H](CC3CC3)C(=O)N[C@H](C#N)C[C@@H]3CCNC3=O)cc12 [Compound 5, N-((S)-1-(((S)-1-cyano-2-((S)-2-oxopyrrolidin-3-yl)ethyl)amino)-3-cyclopropyl-1-oxopropan-2-yl)-4-methoxy-1H-indole-2-carboxamide]	fast exchange regime	3.2	–	1.0	1	0.33 (0.2393 to 0.4596)	0.40 (0.2513 to 0.6949)	1.6 (0.7658 to 3.045)	1.2	0.47	–	–	no new peaks emerged to suggest thioimidate formation	760	–	–	–	–
N#C[C@H](C[C@@H]1CCNC1=O)NC(=O)[C@H](CC1CC1)NC(=O)OCc1ccccc1 [Compound 6, benzyl ((S)-1-(((S)-1-cyano-2-((S)-2-oxopyrrolidin-3-yl)ethyl)amino)-3-cyclopropyl-1-oxopropan-2-yl)carbamate]	–	13	–	1.1	1.0	–	–	–	0.08	0.34	–	–	–	–	–	–	–	–
COc1cccc2[nH]c(C(=O)N[C@@H](CC3CC3)C(=O)N[C@H](C#N)CCS(C)(=O)=O)cc12 [Compound 7, N-((S)-1-(((S)-1-cyano-3-(methylsulfonyl)propyl)amino)-3-cyclopropyl-1-oxopropan-2-yl)-4-methoxy-1H-indole-2-carboxamide]	–	> 50	–	0.6	–	–	–	–	–	–	–	–	–	–	–	–	–	–
CS(=O)(=O)CC[C@@H](C#N)NC(=O)[C@H](CC1CC1)NC(=O)OCc1ccccc1 [Compound 8, benzyl ((S)-1-(((S)-1-cyano-3-(methylsulfonyl)propyl)amino)-3-cyclopropyl-1-oxopropan-2-yl)carbamate]	–	–	–	–	–	–	–	–	–	–	–	–	–	–	> 12.5	> 12.5	> 12.5	> 12.5

— paper PMC12246642 (iScience, 2025)
